As usually defined, the melting point is the temperature, or range, at which the solid turns liquid. As usually defined, the IC50 is the concentration that gives 50% inhibition. As a reminder, the EC50 is the midpoint of the concentration-response curve.

The text below walks through data of patent US20050256132A1, “Use of ER selective NF-kB inhibitors for the treatment of sepsis” (priority 2003, published 2005).

For data set [1], the system named is ER/IL-6. Description: Endothelial Cell ER/IL-6 Assay, IL-6 promoter luciferase (Table 2). The data set is classed as cell-based, human. The conditions noted are these: ERα infected HAECT-1 cells, IL-1β; for Emax: read-out: IL6 luc % Efficacy; for IC50: read-out: IL6 luc IC50. The procedure, abridged: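 One lysate gave both read-outs: luciferase for ER/IL-6 and A340 rate after CK reagent for CK, with four-parameter logistic IC50/EC50. Cells were HAECT-1 aortic endothelial cells carrying adenoviral human ERα (or none), dosed […] at 34 °C from 2× stocks containing 2 ng/ml IL-1β and IL-6(1250 bp)-Luc adenovirus.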

In data set [2] the test system is CK. The data set can be described thus: Creatine kinase assay in ERα infected HAECT-1 cells (Table 2). The data set is classed as cell-based, human. The conditions noted are these: for Emax: HAECT1, read-out: CK % Efficacy. The procedure: T-175 flasks of 100% confluent HAECT-1 cells (immortalized human aortic endothelial cells) were washed with 8 ml of HBSS (HEPES buffered saline solution) and infected for fours hours with 6 ml of a 1:10 dilution of Ad5-wt-hERα virus (an adenovirus transfection vector that mediates CMV promoter driven expression of human ERα) in phenol red free Endothelial Cell Basal medium (Clonetics, San Diego, Calif., Catalog # CC-3129) containing 0.25% bovine serum albumin (EDM-BSA). After four hours, cells were washed with EDM-BSA and incubated overnight in the same medium. Following overnight incubation, cells were washed with EDM-BSA and infected for 2 hours with 6 ml of a 1:10 dilution of Ad5-3x(NFκB).Luc virus (Adenovirus luciferase expression vector driven by three repeats of the MHC NFκb sites 5′ to the thymidine kinase promoter) in EDM-BSA. After two hours, cells were washed and incubated at 34° C. for one hour. Cells were then washed, trypsinized, counted, and resuspended in 95% FBS/5% dimethylsulfoxide at a concentration of […], frozen as 1 or 5 ml aliquots in cryo-vials and stored at −150° C. Control (no ER infection) cells were processed as above without Ad5-wt-hERα virus infection.
ERα infected HAECT-1 cells or control cells were thawed, diluted 42× in warm EBM-BSA, plated into 96-well plates at 0.1 ml/well and incubated for 4 hours at 34° C. Test compounds were added to the cells at 2× stocks in EBM-BSA containing 2 ng/ml IL-1β Ad6-IL-6(1250 bp).Luc virus and plates were returned to the incubator (34° C.). After […], cells were lysed with 50 μl of Promega Cell Culture Lysis reagenet for about 5 minutes at room temperature on a shaker. After lysing, 15 μl of lysate is transferred to luminometer plates for luciferase determination. Luciferase activity is evaluated using a Perkin Elmer Victor2 1420 multilabel counter. Creatine kinase was determined from the rate of increase in A340 following addition of 100 μl of CK assay reagent (Sigma catalog no. 47-10) to the remainder of the cell lysate.
For IC50 and EC50 calculations, mean IL-6, luciferase or CK values versus log10 of the compound concentration were fitted to a four parameter logistic equation. The IC50/EC50 value, ‘Hill slope,’ upper and lower limits of the curve were iteratively estimated.

Where two headings read alike, the source gives them in different places.

For the molecule `COC[C@](C#N)(C(=O)OC)[C@H](c1ccccc1OC)c1cccc2ccccc12` (relative stereo) [Example 141, Methyl (2S*,3S*)-2-cyano-2-(methoxymethyl)-3-(2-methoxyphenyl)-3-(1-naphthyl)propanoate], the melting point is 148.3 to 151 °C. Further, the Emax in data set [1] (Homo sapiens, HAECT1) was determined as 123%. Also, in data set [2] (Homo sapiens), the Emax is 39%.
`COC(=O)[C@@](C#N)(Cc1ccccn1)[C@H](c1ccccc1OC)c1cccc2ccccc12` (relative stereo) [Example 143, Methyl (2S*,3S*)-2-cyano-3-(2-methoxyphenyl)-3-(1-naphthyl)-2-(pyridin-2-ylmethyl)propanoate] gave a melting point of 194.4 to 196.3 °C. In data set [1] (Homo sapiens, HAECT1), the Emax turned out to be 91% and the IC50 is 0.039 µM. This molecule also gave an EC50 in data set [2] (Homo sapiens, HAECT1) of 0.074 µM. Further, in data set [2] (Homo sapiens), the Emax was determined as 38%.
For `COC(=O)[C@@](C#N)(Cc1ccc(Br)cc1)[C@H](c1ccccc1OC)c1cccc2ccccc12` (relative stereo) [Example 152, Methyl (2S*,3S*)-2-(4-bromobenzyl)-2-cyano-3-(2-methoxyphenyl)-3-(1-naphthyl)propanoate] the same measures were 218 to 219 °C, 130%, 0.019 µM, 0.085 µM and 14%.
The molecule `COC(=O)[C@@](C#N)(Cc1ccc(-c2cccc(C(F)(F)F)c2)cc1)[C@H](c1ccccc1OC)c1cccc2ccccc12` (relative stereo) [Example 153, Methyl (2S*,3S*)-2-cyano-3-(2-methoxyphenyl)-3-(1-naphthyl)-2-{[3′-(trifluoromethyl)-1,1′-biphenyl-4-yl]methyl}propanoate] came in with a melting point of 202 to 204.1 °C. In data set [1] (Homo sapiens, HAECT1), the Emax was determined as 150% and the IC50 worked out at 0.149 µM. Further, the Emax in data set [2] (Homo sapiens) is 15%.
Molecule `COC(=O)[C@@](C#N)(CCN(C)C)[C@H](c1ccccc1OC)c1cccc2ccccc12` (relative stereo) [Example 157, Methyl (2S*)-2-cyano-4-(dimethylamino)-2-[(S*)-(2-methoxyphenyl)(1-naphthyl)methyl]butanoate] gave a melting point of 142 to 144.5 °C. In data set [1] (Homo sapiens, HAECT1), the Emax was determined as 110% and the IC50 worked out at 0.023 µM. Further, the Emax in data set [2] (Homo sapiens) was -100%.
With `COC[C@](C#N)(C(=O)NCC(C)(C)C)[C@H](c1ccccc1OC)c1cccc2ccccc12` (relative stereo) [Example 181, (2S*,3S*)-2-cyano-N-(2,2-dimethylpropyl)-2-(methoxymethyl)-3-(2-methoxyphenyl)-3-(1-naphthyl)propanamide], the melting point was in the range of 184.9 to 185.5 °C. In addition, in data set [1] (Homo sapiens, HAECT1), the Emax stood at 104% and the IC50 was determined as 0.389 µM. For the same molecule, the Emax in data set [2] (Homo sapiens) is 2%.
`COc1ccccc1[C@H](c1cccc2ccccc12)[C@@](C)(C#N)C(=O)N1CCN(c2cccc(Br)c2)CC1` [Example 131, (2S)-3-[4-(3-bromophenyl)piperazin-1-yl]-2-[(S)-(2-methoxyphenyl)(1-naphthyl)methyl]-2-methyl-3-oxopropanenitrile] had a melting point of 180 to 182 °C. Also, in data set [1] (Homo sapiens, HAECT1), the Emax came to 119% and the IC50 stood at 0.015 µM. Moreover, the concentration for a half-maximal effect (EC50) in data set [2] (Homo sapiens, HAECT1) stood at 0.212 µM. Besides, the Emax in data set [2] (Homo sapiens) came to 48%.
For `COc1ccccc1[C@H](c1cccc2ccccc12)[C@@](C)(C#N)C(=O)N1CCC(N2C(=O)Cc3ccccc32)CC1` [Example 132, (2S,3S)-3-(2-methoxyphenyl)-2-methyl-3-(1-naphthyl)-2-{[4-(2-oxo-2,3-dihydro-1H-indol-1-yl)piperidin-1-yl]carbonyl}propanenitrile] the same measures were 227 to 230 °C, 92%, 0.122 µM, 0.298 µM and 57%.
For the molecule `COc1ccccc1C1CCN(C(=O)[C@](C)(C#N)[C@H](c2ccccc2OC)c2cccc3ccccc23)CC1` [Example 138, (2S,3S)-3-(2-methoxyphenyl)-2-{[4-(2-methoxyphenyl)piperidin-1-yl]carbonyl}-2-methyl-3-(1-naphthyl)propanenitrile], the melting point was 135 to 140 °C. Further, in data set [1] (Homo sapiens, HAECT1), the Emax came out at 131% and the IC50 came out at 0.015 µM. In data set [2] (Homo sapiens, HAECT1), this molecule had an EC50 of 0.034 µM. Moreover, the Emax in data set [2] (Homo sapiens) was found to be 49%.
Take `COCC(C#N)(C(=O)N1CCN(c2cnccn2)CC1)C(c1ccccc1OC)c1cccc2ccccc12` (stereo not drawn) [Example 212, (RR,SS)-2-(methoxymethyl)-3-(2-methoxyphenyl)-3-(1-naphthyl)-2-[(4-pyrazin-2-ylpiperazin-1-yl)carbonyl]propanenitrile]: in data set [1], the “IL6 luc % Efficacy” value was determined as 113% and the IC50 was 0.059 µM. For the same molecule, in data set [2], the “CK % Efficacy” value was found to be 22% and the EC50 came to 0.138 µM.
For `COCC(C#N)(C(=O)N1CC=C(c2c[nH]c3ccccc23)CC1)C(c1ccccc1OC)c1cccc2ccccc12` (stereo not drawn) [Example 213, (RR,SS)-3-[4-(1H-indol-3-yl)-3,6-dihydropyridin-1(2H)-yl]-2-(methoxymethyl)-2-[(2-methoxyphenyl)(1-naphthyl)methyl]-3-oxopropanenitrile] the same measures were 103%, 0.0056 µM, 26% and 0.064 µM.
Regarding `COc1ccccc1C(c1cccc2ccccc12)C(C#N)(COCc1ccccc1)C(=O)N1CCN(C2CCCCC2)CC1` (stereo not drawn) [Example 217, (RR,SS)-2-[(benzyloxy)methyl]-3-(4-cyclohexylpiperazin-1-yl)-2-[(2-methoxyphenyl) (1-naphthyl)methyl]-3-oxopropanenitrile], in data set [1], the “IL6 luc % Efficacy” value was determined as 12% and the IC50 stood at 0.203 µM. For the same molecule, the “CK % Efficacy” value in data set [2] was −37%.
For `COc1ccccc1[C@@H](c1cccc2ccccc12)[C@@](C#N)(COCc1ccccc1)C(=O)N1CCN(c2ncccn2)CC1` [Example 218, (RR,SS)-2-[(benzyloxy)methyl]-3-(2-methoxyphenyl)-3-(1-naphthyl)-2-[(4-pyrimidin-2-ylpiperazin-1-yl)carbonyl]propanenitrile] the same measures were 101%, 0.103 µM and −12%.
`COc1ccccc1[C@@H](c1cccc2ccccc12)[C@@](C#N)(COCc1ccccc1)C(=O)N1CCN(c2cnccn2)CC1` [Example 220, (RR,SS)-2-[(benzyloxy)methyl]-3-(2-methoxyphenyl)-3-(1-naphthyl)-2-[(4-pyrazin-2-ylpiperazin-1-yl)carbonyl]propanenitrile]: in data set [1], the “IL6 luc % Efficacy” value was found to be 128% and the 50% inhibitory concentration (IC50) turned out to be 0.344 µM. For the same molecule, the “CK % Efficacy” value in data set [2] is recorded as 6%.
For the molecule `COC[C@@](C#N)(C(=O)N1CCN(C2CCCCC2)CC1)[C@@H](c1ccccc1OC)c1cccc2ccccc12` [Example 222, (2R,3R)-3-(4-cyclohexylpiperazin-1-yl)-2-(methoxymethyl)-2-[(2-methoxyphenyl)(1-naphthyl)methyl]-3-oxopropanenitrile], in data set [1], the “IL6 luc % Efficacy” value is given as 170% and the concentration for half-maximal inhibition (IC50) is 0.304 µM. The same molecule yielded an EC50 in data set [2] of 0.033 µM.
Turning to `COC[C@](C#N)(C(=O)N1CC=C(c2c[nH]c3ccccc23)CC1)[C@H](c1ccccc1OC)c1cccc2ccccc12` [Example 225], in data set [1], the “IL6 luc % Efficacy” value amounted to 83% and the IC50 turned out to be 1.6 µM. Moreover, the “CK % Efficacy” value in data set [2] was −12%.
Regarding `COC[C@@](C#N)(C(=O)N1CC=C(c2c[nH]c3ccccc23)CC1)[C@@H](c1ccccc1OC)c1cccc2ccccc12` [Example 226], in data set [1], the “IL6 luc % Efficacy” value was 115% and the IC50 came out at 0.22 µM. In data set [2], the “CK % Efficacy” value was found to be 18% and the EC50 was 0.138 µM.
